Laboratory results taken from PubChem BioAssay (NCI).
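Tested at 5 concentrations; 48 h exposure; 96-well plates; endpoints linearly interpolated, else capped at highest concentration. At the TGI there is no net growth.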

tested on: NCI-H226 lung; assay: inhibition of tumour cell growth, NCI panel, 48 h

| SMILES | TGI [µM] |
| --- | --- |
| N#CC(C#N)N=Cc1ccncc1 | > 100 |
| COC(=O)C1=C(O)C(C(=O)OC)[C@]2(O)[C@H](C(=O)OC)[C@H]1C[C@@H](c1ccc(F)cc1)[C@H]2C(=O)OC (some centres undefined) | 49.9 |
| CC(=O)O[C@H]1CC[C@H]2[C@@H]3CCC4C(C)=NNC(=O)C4[C@H]3CC[C@]12C (some centres undefined) | > 100 |
| O=c1[nH]c(C23CC4CC(CC(C4)C2)C3)cc2c1c(=O)oc1ccccc12 | 5.75 |
| O=C1C(=O)c2c(oc(=O)c3ccccc23)-c2ccccc21 | > 25 |
| CN1CCC2(CC1)SC[C@H]1C(=O)N(c3ccc(Cl)cc3)C(=O)N12 | > 100 |
| CC(C)=CCC[C@@H](C)C1=C(O)C(O)C(C)=C2N=C(c3ccccc3)C(=O)OC21 (some centres undefined) | 6.94 |
| CCOC(=O)C1=CN/C(=C(/C)C(=O)OC)SC1C(=O)OCC (centres undefined) | > 100 |
| COc1cc(/C=C(\C#N)c2nc3ccccc3o2)ccc1O | 49 |
| COc1ccc2cc(CNCCCCCCCCCCCCNCc3ccc4cc(OC)ccc4c3)ccc2c1 | 32.5 |
| Cc1cc(C)nc(NS(=O)(=O)c2ccc(NNc3c4ccccc4nc4c(C(=O)Nc5ccc(S(=O)(=O)Nc6ncccn6)cc5)cccc34)cc2)n1 | 53.2 |
| O=C1CC(NC(=O)C(F)(F)F)c2c1csc2Br (centres undefined) | > 100 |
| O=C(N/N=C/c1ccc2c(c1)OCO2)Nc1ccccc1Cl | > 73.5 |
| CC1(C)C2CCC3=C(CCC4(C)C5C[C@](C)(C(=O)O)CC[C@]5(C)CC[C@]34C)[C@@]2(C)CC[C@@H]1O (some centres undefined) | 67.9 |
| CCOC(=O)C(SCCO)C(C(=O)OCC)n1cnc2c(N)ncnc21 (centres undefined) | 38 |
| CCCCCCCCCCCCCCCCCCNc1ccn(C2OC(COP(=O)(O)OC3CC(n4cc(F)c(=O)[nH]c4=O)OC3COP(=O)(O)OCC3OC(n4ccc(N)nc4=O)C(O)C3O)C(O)C2O)c(=O)n1 (centres undefined) | > 82.2 |

tested on: KM12 colon; assay: inhibition of tumour cell growth, NCI panel, 48 h

| SMILES | TGI [µM] |
| --- | --- |
| N#CC(C#N)N=Cc1ccncc1 | > 100 |
| COC(=O)C1=C(O)C(C(=O)OC)[C@]2(O)[C@H](C(=O)OC)[C@H]1C[C@@H](c1ccc(F)cc1)[C@H]2C(=O)OC (some centres undefined) | 47.9 |
| CC(=O)O[C@H]1CC[C@H]2[C@@H]3CCC4C(C)=NNC(=O)C4[C@H]3CC[C@]12C (some centres undefined) | > 100 |
| O=c1[nH]c(C23CC4CC(CC(C4)C2)C3)cc2c1c(=O)oc1ccccc12 | > 96 |
| O=C1C(=O)c2c(oc(=O)c3ccccc23)-c2ccccc21 | > 25 |
| CN1CCC2(CC1)SC[C@H]1C(=O)N(c3ccc(Cl)cc3)C(=O)N12 | > 100 |
| CC(C)=CCC[C@@H](C)C1=C(O)C(O)C(C)=C2N=C(c3ccccc3)C(=O)OC21 (some centres undefined) | > 18.3 |
| CCOC(=O)C1=CN/C(=C(/C)C(=O)OC)SC1C(=O)OCC (centres undefined) | > 100 |
| COc1cc(/C=C(\C#N)c2nc3ccccc3o2)ccc1O | 37.7 |
| COc1ccc2cc(CNCCCCCCCCCCCCNCc3ccc4cc(OC)ccc4c3)ccc2c1 | 40.1 |
| Cc1cc(C)nc(NS(=O)(=O)c2ccc(NNc3c4ccccc4nc4c(C(=O)Nc5ccc(S(=O)(=O)Nc6ncccn6)cc5)cccc34)cc2)n1 | > 100 |
| O=C1CC(NC(=O)C(F)(F)F)c2c1csc2Br (centres undefined) | > 100 |
| O=C(N/N=C/c1ccc2c(c1)OCO2)Nc1ccccc1Cl | > 100 |
| CC1(C)C2CCC3=C(CCC4(C)C5C[C@](C)(C(=O)O)CC[C@]5(C)CC[C@]34C)[C@@]2(C)CC[C@@H]1O (some centres undefined) | 33.6 |
| CCOC(=O)C(SCCO)C(C(=O)OCC)n1cnc2c(N)ncnc21 (centres undefined) | 35.2 |
| CCCCCCCCCCCCCCCCCCNc1ccn(C2OC(COP(=O)(O)OC3CC(n4cc(F)c(=O)[nH]c4=O)OC3COP(=O)(O)OCC3OC(n4ccc(N)nc4=O)C(O)C3O)C(O)C2O)c(=O)n1 (centres undefined) | 41.5 |

tested on: HL-60(TB) leukemia; assay: inhibition of tumour cell growth, NCI panel, 48 h

| SMILES | TGI [µM] |
| --- | --- |
| N#CC(C#N)N=Cc1ccncc1 | > 100 |
| COC(=O)C1=C(O)C(C(=O)OC)[C@]2(O)[C@H](C(=O)OC)[C@H]1C[C@@H](c1ccc(F)cc1)[C@H]2C(=O)OC (some centres undefined) | 7.24 |
| CC(=O)O[C@H]1CC[C@H]2[C@@H]3CCC4C(C)=NNC(=O)C4[C@H]3CC[C@]12C (some centres undefined) | > 100 |
| O=c1[nH]c(C23CC4CC(CC(C4)C2)C3)cc2c1c(=O)oc1ccccc12 | > 100 |
| O=C1C(=O)c2c(oc(=O)c3ccccc23)-c2ccccc21 | 15 |
| CN1CCC2(CC1)SC[C@H]1C(=O)N(c3ccc(Cl)cc3)C(=O)N12 | > 100 |
| CC(C)=CCC[C@@H](C)C1=C(O)C(O)C(C)=C2N=C(c3ccccc3)C(=O)OC21 (some centres undefined) | 1.63 |
| CCOC(=O)C1=CN/C(=C(/C)C(=O)OC)SC1C(=O)OCC (centres undefined) | > 100 |
| COc1cc(/C=C(\C#N)c2nc3ccccc3o2)ccc1O | 55.3 |
| COc1ccc2cc(CNCCCCCCCCCCCCNCc3ccc4cc(OC)ccc4c3)ccc2c1 | 34.9 |
| Cc1cc(C)nc(NS(=O)(=O)c2ccc(NNc3c4ccccc4nc4c(C(=O)Nc5ccc(S(=O)(=O)Nc6ncccn6)cc5)cccc34)cc2)n1 | 62.9 |
| O=C1CC(NC(=O)C(F)(F)F)c2c1csc2Br (centres undefined) | > 100 |
| O=C(N/N=C/c1ccc2c(c1)OCO2)Nc1ccccc1Cl | > 23.1 |
| CC1(C)C2CCC3=C(CCC4(C)C5C[C@](C)(C(=O)O)CC[C@]5(C)CC[C@]34C)[C@@]2(C)CC[C@@H]1O (some centres undefined) | 50.4 |
| CCOC(=O)C(SCCO)C(C(=O)OCC)n1cnc2c(N)ncnc21 (centres undefined) | 5.46 |
| CCCCCCCCCCCCCCCCCCNc1ccn(C2OC(COP(=O)(O)OC3CC(n4cc(F)c(=O)[nH]c4=O)OC3COP(=O)(O)OCC3OC(n4ccc(N)nc4=O)C(O)C3O)C(O)C2O)c(=O)n1 (centres undefined) | 11.4 |

tested on: SK-MEL-5 melanoma; assay: inhibition of tumour cell growth, NCI panel, 48 h

| SMILES | TGI [µM] |
| --- | --- |
| N#CC(C#N)N=Cc1ccncc1 | > 100 |
| COC(=O)C1=C(O)C(C(=O)OC)[C@]2(O)[C@H](C(=O)OC)[C@H]1C[C@@H](c1ccc(F)cc1)[C@H]2C(=O)OC (some centres undefined) | 25.2 |
| CC(=O)O[C@H]1CC[C@H]2[C@@H]3CCC4C(C)=NNC(=O)C4[C@H]3CC[C@]12C (some centres undefined) | > 100 |
| O=c1[nH]c(C23CC4CC(CC(C4)C2)C3)cc2c1c(=O)oc1ccccc12 | 18.3 |
| O=C1C(=O)c2c(oc(=O)c3ccccc23)-c2ccccc21 | > 25 |
| CN1CCC2(CC1)SC[C@H]1C(=O)N(c3ccc(Cl)cc3)C(=O)N12 | > 100 |
| CC(C)=CCC[C@@H](C)C1=C(O)C(O)C(C)=C2N=C(c3ccccc3)C(=O)OC21 (some centres undefined) | 6.32 |
| CCOC(=O)C1=CN/C(=C(/C)C(=O)OC)SC1C(=O)OCC (centres undefined) | > 100 |
| COc1cc(/C=C(\C#N)c2nc3ccccc3o2)ccc1O | 36.3 |
| COc1ccc2cc(CNCCCCCCCCCCCCNCc3ccc4cc(OC)ccc4c3)ccc2c1 | > 54 |
| Cc1cc(C)nc(NS(=O)(=O)c2ccc(NNc3c4ccccc4nc4c(C(=O)Nc5ccc(S(=O)(=O)Nc6ncccn6)cc5)cccc34)cc2)n1 | 47.5 |
| O=C1CC(NC(=O)C(F)(F)F)c2c1csc2Br (centres undefined) | > 100 |
| O=C(N/N=C/c1ccc2c(c1)OCO2)Nc1ccccc1Cl | 15.3 |
| CC1(C)C2CCC3=C(CCC4(C)C5C[C@](C)(C(=O)O)CC[C@]5(C)CC[C@]34C)[C@@]2(C)CC[C@@H]1O (some centres undefined) | 68.7 |
| CCOC(=O)C(SCCO)C(C(=O)OCC)n1cnc2c(N)ncnc21 (centres undefined) | > 58 |
| CCCCCCCCCCCCCCCCCCNc1ccn(C2OC(COP(=O)(O)OC3CC(n4cc(F)c(=O)[nH]c4=O)OC3COP(=O)(O)OCC3OC(n4ccc(N)nc4=O)C(O)C3O)C(O)C2O)c(=O)n1 (centres undefined) | > 48.8 |

tested on: PC-3 prostate; assay: inhibition of tumour cell growth, NCI panel, 48 h

| SMILES | TGI [µM] |
| --- | --- |
| N#CC(C#N)N=Cc1ccncc1 | > 100 |
| COC(=O)C1=C(O)C(C(=O)OC)[C@]2(O)[C@H](C(=O)OC)[C@H]1C[C@@H](c1ccc(F)cc1)[C@H]2C(=O)OC (some centres undefined) | 33.2 |
| CC(=O)O[C@H]1CC[C@H]2[C@@H]3CCC4C(C)=NNC(=O)C4[C@H]3CC[C@]12C (some centres undefined) | > 100 |
| O=c1[nH]c(C23CC4CC(CC(C4)C2)C3)cc2c1c(=O)oc1ccccc12 | 10.5 |
| O=C1C(=O)c2c(oc(=O)c3ccccc23)-c2ccccc21 | > 25 |
| CN1CCC2(CC1)SC[C@H]1C(=O)N(c3ccc(Cl)cc3)C(=O)N12 | > 100 |
| CC(C)=CCC[C@@H](C)C1=C(O)C(O)C(C)=C2N=C(c3ccccc3)C(=O)OC21 (some centres undefined) | > 25 |
| CCOC(=O)C1=CN/C(=C(/C)C(=O)OC)SC1C(=O)OCC (centres undefined) | > 100 |
| COc1cc(/C=C(\C#N)c2nc3ccccc3o2)ccc1O | 66.4 |
| COc1ccc2cc(CNCCCCCCCCCCCCNCc3ccc4cc(OC)ccc4c3)ccc2c1 | > 55.4 |
| Cc1cc(C)nc(NS(=O)(=O)c2ccc(NNc3c4ccccc4nc4c(C(=O)Nc5ccc(S(=O)(=O)Nc6ncccn6)cc5)cccc34)cc2)n1 | 71.3 |
| O=C1CC(NC(=O)C(F)(F)F)c2c1csc2Br (centres undefined) | > 100 |
| O=C(N/N=C/c1ccc2c(c1)OCO2)Nc1ccccc1Cl | > 100 |
| CC1(C)C2CCC3=C(CCC4(C)C5C[C@](C)(C(=O)O)CC[C@]5(C)CC[C@]34C)[C@@]2(C)CC[C@@H]1O (some centres undefined) | 29.1 |
| CCOC(=O)C(SCCO)C(C(=O)OCC)n1cnc2c(N)ncnc21 (centres undefined) | 14.7 |
